Results reported in PMC8482274, “Inadequate Cerebrospinal Fluid Concentrations of Available Salvage Agents Further Impedes the Optimal Treatment of Multidrug-Resistant Enterococcus faecium Meningitis and Bacteremia” (Infectious Disease Reports, 2021).
Read-outs that look alike come from different tables or passages of the source.

Tested on: VREf isolates
Assay: microbe, parasite or virus in culture
Method: Initial organism identification and susceptibility determination were performed via MALDI-TOF MS (Bruker Daltonics, Billerica, MA, USA) and MicroScan Walkaway (Beckman Coulter, Brea, CA), respectively, in the clinical microbiology laboratory. Pure colonies of the VREf isolates cultured from the CSF on hospital days 33 and 57 and from blood on days 35 and 52 were sub-cultured to BD BBL chocolate II agar slants (Becton, Dickinson and Company, Sparks, MD, USA) and shipped immediately overnight to the research laboratory where all subsequent testing was performed. Identification and resistance marker detection was confirmed via the Verigene Gram-positive blood culture assay (Luminex, Northbrook, IL, USA).
Minimum inhibitory concentrations were determined in triplicate according to CLSI guidelines. Modal MIC values are reported.

[1] = Enterococcus faecium, VREf isolate from CSF, hospital day 33, modal MIC of triplicate, CLSI guidelines
[2] = Enterococcus faecium, VREf isolate from CSF, hospital day 57, modal MIC of triplicate, CLSI guidelines
[3] = Enterococcus faecium, VREf isolate from blood, hospital day 35, modal MIC of triplicate, CLSI guidelines
[4] = Enterococcus faecium, VREf isolate from blood, hospital day 52, modal MIC of triplicate, CLSI guidelines
[5] = VREf isolate from CSF, hospital day 33, CLSI M100-S30 unless footnoted (b: CLSI vancomycin-susceptible E. faecalis; c: FDA E. faecalis; d: EUCAST v.10.0 E. faecium)
[6] = VREf isolate from CSF, hospital day 57, CLSI M100-S30 unless footnoted
[7] = VREf isolate from blood, hospital day 35, CLSI M100-S30 unless footnoted
[8] = VREf isolate from blood, hospital day 52, CLSI M100-S30 unless footnoted

For CC1(C)S[C@@H]2[C@H](NC(=O)[C@H](N)c3ccccc3)C(=O)N2[C@H]1C(=O)O [Ampicillin], the MIC [1] was ≥ 16 mg/L, the MIC [2] was ≥ 16 mg/L and the MIC [3] was ≥ 16 mg/L. For the same compound, the MIC [4] was ≥ 16 mg/L, the “Interpretive Category” value [5] was “R” and the “Interpretive Category” value [6] was “R”. For the same compound, the “Interpretive Category” value [7] was “R” and the “Interpretive Category” value [8] was “R”.
For CCO/N=C(\C(=O)N[C@@H]1C(=O)N2C(C(=O)[O-])=C(Sc3nc(-c4cc[n+](C)cc4)cs3)CS[C@H]12)c1nsc(N)n1 [Ceftaroline], the MIC [1] was ≥ 128 mg/L, the MIC [2] was ≥ 128 mg/L and the MIC [3] was ≥ 128 mg/L. For the same compound, the MIC [4] was ≥ 128 mg/L.
CO/N=C(\C(=O)N[C@@H]1C(=O)N2C(C(=O)O)=C(CSc3nc(=O)c(=O)[nH]n3C)CS[C@H]12)c1csc(N)n1 [Ceftriaxone] was tested, and the MIC [1] was ≥ 128 mg/L, the MIC [2] was ≥ 128 mg/L and the MIC [3] was ≥ 128 mg/L. The MIC [4] was ≥ 128 mg/L.
O=C(N[C@H](CO)[C@H](O)c1ccc([N+](=O)[O-])cc1)C(Cl)Cl [Chloramphenicol] was tested, and the MIC [1] was ≥ 32 mg/L, the MIC [2] was ≥ 32 mg/L and the MIC [3] was ≥ 32 mg/L. The MIC [4] was ≥ 32 mg/L, the “Interpretive Category” value [5] was “R” and the “Interpretive Category” value [6] was “R”. The “Interpretive Category” value [7] was “R” and the “Interpretive Category” value [8] was “R”.
In the case of CN[C@H]1C(=O)N[C@@H]2Cc3ccc(cc3)Oc3cc4cc(c3O[C@@H]3O[C@H](C(=O)O)[C@@H](O)[C@H](O)[C@H]3NC(=O)CCCCCCCCC(C)C)Oc3ccc(cc3Cl)[C@@H](O)[C@@H]3NC(=O)[C@H](NC(=O)[C@@H]4NC(=O)[C@@H](NC2=O)c2cc(cc(O)c2Cl)Oc2cc1ccc2O)c1ccc(O)c(c1)-c1c(O[C@H]2O[C@H](CO)[C@@H](O)[C@H](O)[C@@H]2O)cc(O)cc1[C@@H](C(=O)NCCCN(C)C)NC3=O [Dalbavancin], the MIC is reported as ≥4 mg/L.
In the case of Nc1nc(-n2cc(C(=O)O)c(=O)c3cc(F)c(N4CC(O)C4)c(Cl)c32)c(F)cc1F [Delafloxacin], the MIC [1] is reported as > 8 mg/L, the MIC [2] is reported as > 8 mg/L and the MIC [3] is reported as > 8 mg/L. For the same compound, the MIC [4] was > 8 mg/L, the “Interpretive Category” value [5] was “R” and the “Interpretive Category” value [6] was “R”. The “Interpretive Category” value [7] was “R” and the “Interpretive Category” value [8] was “R”.
For CC[C@H]1OC(=O)[C@H](C)[C@@H](O[C@H]2C[C@@](C)(OC)[C@@H](O)[C@H](C)O2)[C@H](C)[C@@H](O[C@@H]2O[C@H](C)C[C@H](N(C)C)[C@H]2O)[C@](C)(O)C[C@@H](C)C(=O)[C@H](C)[C@@H](O)[C@]1(C)O [Erythromycin], the MIC [1] was ≥ 8 mg/L, the MIC [2] was ≥ 8 mg/L and the MIC [3] was ≥ 8 mg/L. For the same compound, the MIC [4] was ≥ 8 mg/L, the “Interpretive Category” value [5] was “R” and the “Interpretive Category” value [6] was “R”. The “Interpretive Category” value [7] was “R” and the “Interpretive Category” value [8] was “R”.
C[C@@H]1O[C@@H]1P(=O)(O)O [Fosfomycin] showed an MIC [1] of 64 mg/L, an MIC [2] of 64 mg/L and an MIC [3] of 64 mg/L. For the same compound, the MIC [4] was 64 mg/L, the “Interpretive Category” value [5] was “S” and the “Interpretive Category” value [6] was “S”. The “Interpretive Category” value [7] was “S” and the “Interpretive Category” value [8] was “S”.
For CNC(C)C1CCC(N)C(OC2C(N)CC(N)C(OC3OCC(C)(O)C(NC)C3O)C2O)O1 (centres unmarked) [Gentamicin], the MIC [1] was ≤ 500 mg/L, the MIC [2] was ≤ 500 mg/L and the MIC [3] was ≤ 500 mg/L. For the same compound, the MIC [4] was ≤ 500 mg/L, the “Interpretive Category” value [5] was “S” and the “Interpretive Category” value [6] was “S”. The “Interpretive Category” value [7] was “S” and the “Interpretive Category” value [8] was “S”.
Work on C=C[C@]1(C)C[C@@H](OC(=O)CS[C@@H]2CC[C@@H](N)C[C@H]2O)[C@]2(C)[C@H](C)CC[C@]3(CCC(=O)[C@H]32)[C@@H](C)[C@@H]1O [Lefamulin] yielded an MIC [1] of 1 mg/L, an MIC [2] of 2 mg/L and an MIC [3] of 1 mg/L. It also gave an MIC [4] of 2 mg/L.
For C[C@H]1COc2c(N3CCN(C)CC3)c(F)cc3c(=O)c(C(=O)O)cn1c23 [Levofloxacin], the MIC [1] was ≥ 8 mg/L, the MIC [2] was ≥ 8 mg/L and the MIC [3] was ≥ 8 mg/L. For the same compound, the MIC [4] was ≥ 8 mg/L, the “Interpretive Category” value [5] was “R” and the “Interpretive Category” value [6] was “R”. For the same compound, the “Interpretive Category” value [7] was “R” and the “Interpretive Category” value [8] was “R”.
In the case of O=C1CN(/N=C/c2ccc([N+](=O)[O-])o2)C(=O)N1 [Nitrofurantoin], the MIC [1] is reported as ≥ 128 mg/L, the MIC [2] is reported as ≥ 128 mg/L and the MIC [3] is reported as ≥ 128 mg/L. For the same compound, the MIC [4] was ≥ 128 mg/L, the “Interpretive Category” value [5] was “R” and the “Interpretive Category” value [6] was “R”. For the same compound, the “Interpretive Category” value [7] was “R” and the “Interpretive Category” value [8] was “R”.
